We go through 1 sequence from PMC8534003, “The Chemokine-Based Peptide, CXCL9(74-103), Inhibits Angiogenesis by Blocking Heparan Sulfate Proteoglycan-Mediated Signaling of Multiple Endothelial Growth Factors” (Cancers, 2021).

The subject of this experiment is FGF-2-induced angiogenesis, C57BL/6 mice. The experiment can be described thus: In vivo angiogenesis Matrigel plug assay. Conditions: data not shown. Further details: species or system mouse. On the procedure: Six-to-eight-week-old female C57BL/6 mice were anesthetized with a mixture of 2.5 mg/mL xylazine (V.M.D, Inovet, Arendonk, Belgium) and 37.5 mg/mL ketamine (Dechra, Northwich, UK) in PBS by i.p. injection. A vertical dorsal incision was made and an ALZET osmotic pump (model 1007D, DURECT Corporation, Cupertine, CA, USA) filled with 400 µg/100 µL CXCL9(74-103) or 100 µL PBS was subcutaneously (s.c.) implanted. The incision was closed with a surgical suture. Growth factor-reduced Matrigel (Corning Matrigel Growth Factor (GFR) Basement Membrane Matrix, Phenol Red-Free, LDEV-Free; Corning Life Sciences, Amsterdam, The Netherlands) was s.c. injected in the dorsal flank forming a firm plug (600 µL/plug). The Matrigel was either injected as such (control plugs) or supplemented with 300 µg CXCL9(74-103) and/or 180 ng FGF-2. Seven days later, the mice were sacrificed. Thirty minutes before sacrifice, the mice were i.v. injected with 200 µL (25 mg/kg) FITC-labeled 2000 kDa dextran (Sigma-Aldrich) to quantify vessel formation in the Matrigel plugs. Blood was collected through cardiac puncture into heparinized tubes containing 20 µL heparin (5.000 IE/mL, Leo Pharma, Ballerup, Denmark). The blood was centrifuged at 200 g and 4 °C for 10 min, whereafter the supernatant was centrifuged at 3000 g and 4 °C for 10 min. The collected plasma was stored away from light at 4 °C until analysis. The Matrigel plugs were removed and enzymatically and mechanically digested in 1.2 mL dispase (Corning Life Sciences) using an incubation at 37 °C for 1.5 h and the gentleMACS™ Dissociator (Miltenyi Biotec, Bergisch Gladbach, Germany). The digested Matrigel plugs were filtered through a 70 µm cell strainer, washed with 1.5 mL FACS buffer [2% (v/v) FCS + 2 mM EDTA in PBS] and centrifuged at 300 g and 4 °C for 7 min. The supernatant (SN) was centrifuged again at 300 g and 4 °C for 7 min and the SN was retained away from light at 4 °C until analysis. The pellet was resuspended in 1 mL FACS buffer, the cells were counted and used for flow cytometry. The antibodies used to identify endothelial cells were anti-mouse CD45-APC (clone 30-F11, eBioscience, Thermo Fisher Scientific), anti-mouse CD146-PE (clone ME-9F1) and anti-mouse Pan-endothelial Cell Antigen-BV711 (clone MECA-32) antibodies (both BD Biosciences). Mice experiments were approved by the Ethical Committee of KU Leuven (project number P199/2018).

For the sequence KKVLKVRKSQRSRQKKTT [CXCL9(86-103)], the “FGF-2-induced angiogenesis in the Matrigel plug assay” value is reported as “no anti-angiogenic activity”.
